For 33 molecules, IC50 results are on record in patent publication US20250026741A1, “INHIBITORS OF THE ONCOGENIC SHP2 PHOSPHATASE AND USES THEREOF” (Sanford Burnham Prebys Medical Discovery Institute, priority 2021, published 2025).

Assay type in all cases: biochemical
Test [1] deals with full-length SHP2 wild-type (SHP2-WT) (Homo sapiens (Human), UniProt Q06124). Briefly: DiFMUP fluorescence intensity phosphatase inhibition assay, SHP2-WT activated with IRS-1 peptide. Conditions: DiFMUP at Km (60 μM), IRS-1 peptide activated. An excerpt: (§1) To test the synthesized compounds for their potential to inhibit SHP2 activity, a fluorescence intensity-based assay using 6,8-difluoro-4-methylumbelliferyl phosphate (DiFMUP) as the substrate was adapted for three recombinant SHP2 constructs: 1) the SHP2 catalytic domain (SHP2cat; residues 248-527), 2) the full-length SHP2-E76K oncogenic mutant, and 3) the full-length SHP2 wild-type (SHP2-WT). The recombinant SHP2 proteins were expressed and purified. A dually phosphorylated peptide derived from the insulin receptor substrate 1 (IRS-1) served as a surrogate binding protein and was used to activate SHP2-WT. […] Michaelis-Menten experiments to determine the DiFMUP Michaelis-Menten constant (Kmn) for each SHP2 construct were performed and yielded the following values: SHP2-WT, Km=60 μM; SHP2-E76K, Km=20 μM; SHP2cat, Km=20 μM. Relative maximum rates (Vmax) of the DiFMUP reactions were as follows: SHP2-WT, Vmax=871 AFU/min; SHP2-E76K, Vmax, =2730 AFU/min; SHP2cat, Vmax=2912 AFU/min. IC50 values for each compound were determined from initial rates in 10-point dose-response assays using DiFMUP at a concentration corresponding to its Km value for the respective SHP2 construct.
full-length SHP2 wild-type (SHP2-WT), sequence (Q06124 whole entry, other chains not shown, the tested form may be a part): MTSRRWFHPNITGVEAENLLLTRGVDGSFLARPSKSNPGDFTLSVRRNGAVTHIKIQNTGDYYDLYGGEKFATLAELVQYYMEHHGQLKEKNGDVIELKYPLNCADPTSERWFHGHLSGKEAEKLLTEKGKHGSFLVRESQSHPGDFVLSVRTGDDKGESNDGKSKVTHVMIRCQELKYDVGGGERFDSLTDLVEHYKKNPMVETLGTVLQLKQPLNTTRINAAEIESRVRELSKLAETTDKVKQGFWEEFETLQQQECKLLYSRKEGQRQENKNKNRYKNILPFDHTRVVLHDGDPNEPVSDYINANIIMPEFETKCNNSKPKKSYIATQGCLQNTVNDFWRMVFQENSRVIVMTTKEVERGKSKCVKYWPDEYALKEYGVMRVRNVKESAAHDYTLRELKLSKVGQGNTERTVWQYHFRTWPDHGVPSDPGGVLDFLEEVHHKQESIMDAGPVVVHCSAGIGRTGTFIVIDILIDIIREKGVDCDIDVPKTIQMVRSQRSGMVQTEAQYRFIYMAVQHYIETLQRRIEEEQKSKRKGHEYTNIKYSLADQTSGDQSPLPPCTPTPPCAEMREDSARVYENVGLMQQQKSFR
(§2) SHP2 inhibitors were tested at room temperature (RT) in a 384-well plate format standard phosphatase fluorescence intensity assay using DiFMUP (Invitrogen/Thermo Fisher Scientific, Carlsbad, CA) as a substrate and a total reaction volume of 25 μL. SHP2 inhibitors or vehicle (DMSO) were spotted in triplicate into a black Greiner FLUOTRAC™ 200 384-well microplate (#781076, Greiner) for a 10-point dose-response assay using an Echo®555 Liquid Handler (Labcyte, Inc., San Jose, CA). PTP working solutions were prepared at a 0.625 nM concentration (for a final concentration of 0.5 nM) in buffer containing 50 mM Bis-Tris pH 6.0, 50 mM NaCl, 5 mM DTT, and 0.01% Tween® 20. Prior to the assay, a dually phosphorylated insulin receptor substrate 1 (IRS-1) peptide [625 nM (500 nMfinal) (30)] was added to full-length WT SHP2 working solutions and incubated for 20 min. DiFMUP working solutions at 5× final concentration were prepared in 50 mM Bis-Tris pH 6.0, 50 mMNaCl, and 0.01% Tween 20. 20 μL of PTP working solution was dispensed into the microplate and incubated with inhibitor for 20 min at RT. […] The reaction was initiated by addition of 5 μL DiFMUP working solutions. Fluorescence intensity was measured in kinetic mode (every minute for 7 or 10 min) using a Tecan Spark® Multimode Microplate Reader (Tecan, Groedig, Austria) with an excitation wavelength of 360 nm and an emission wavelength of 460 nm. The initial rates were determined from the linear progression curves of the PTP reaction. The nonenzymatic hydrolysis of the substrate was corrected by using a control without addition of enzyme. IC50 values were calculated from the corrected initial rates by nonlinear regression using the program GraphPad Prism (GraphPad Software, Inc., San Diego, CA) Version 8. Dose-response inhibition assays of SHP2cat using the substrate OMFP were performed similarly as described above for DiFMUP. OMFP was used at a concentration corresponding to its Km value for SHP2cat (50 μM final). Fluorescence intensity was measured in kinetic mode (every minute for 10 min) using a Tecan Spark Multimode Microplate Reader with an excitation wavelength of 485 nm and an emission wavelength of 535 nm. Initial rates were determined and IC50 vales calculated as described above.

Test [2] addresses full-length SHP2-E76K oncogenic mutant (Homo sapiens (Human), UniProt Q06124, E76K). Put plainly: DiFMUP fluorescence intensity phosphatase inhibition assay, SHP2-E76K. As to conditions: DiFMUP at Km (20 μM), 10-point dose-response; read-out: SHP2-E76K IC50.
From the text: as §1, §2

Test [3] concerns the target SHP2 catalytic domain (SHP2cat; residues 248-527) (Homo sapiens (Human), UniProt Q06124). Briefly: DiFMUP fluorescence intensity phosphatase inhibition assay, SHP2cat. Conditions: DiFMUP at Km (20 μM); read-out: SHP2cat IC50.
From the text: as §1, §2

A value given as a limit tells only on which side of the number the result lay.

full-length SHP2-E76K oncogenic mutant, sequence (Q06124 whole entry E76K): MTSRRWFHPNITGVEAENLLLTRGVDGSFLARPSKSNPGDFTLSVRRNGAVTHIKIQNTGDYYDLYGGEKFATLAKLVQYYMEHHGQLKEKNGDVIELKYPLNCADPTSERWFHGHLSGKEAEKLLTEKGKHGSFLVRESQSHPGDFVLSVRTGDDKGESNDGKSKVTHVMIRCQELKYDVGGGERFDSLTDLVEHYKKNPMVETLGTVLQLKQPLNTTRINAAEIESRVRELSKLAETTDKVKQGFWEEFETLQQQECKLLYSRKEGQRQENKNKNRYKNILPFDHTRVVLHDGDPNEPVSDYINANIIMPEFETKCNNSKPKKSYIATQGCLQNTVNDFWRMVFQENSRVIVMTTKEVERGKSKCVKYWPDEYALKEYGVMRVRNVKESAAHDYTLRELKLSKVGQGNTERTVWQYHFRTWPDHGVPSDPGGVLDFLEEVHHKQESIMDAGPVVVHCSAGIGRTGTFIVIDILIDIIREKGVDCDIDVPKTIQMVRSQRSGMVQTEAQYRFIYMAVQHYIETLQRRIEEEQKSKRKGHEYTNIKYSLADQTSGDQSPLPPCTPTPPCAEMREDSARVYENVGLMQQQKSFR
SHP2 catalytic domain (SHP2cat; residues 248-527), sequence (Q06124 248-527): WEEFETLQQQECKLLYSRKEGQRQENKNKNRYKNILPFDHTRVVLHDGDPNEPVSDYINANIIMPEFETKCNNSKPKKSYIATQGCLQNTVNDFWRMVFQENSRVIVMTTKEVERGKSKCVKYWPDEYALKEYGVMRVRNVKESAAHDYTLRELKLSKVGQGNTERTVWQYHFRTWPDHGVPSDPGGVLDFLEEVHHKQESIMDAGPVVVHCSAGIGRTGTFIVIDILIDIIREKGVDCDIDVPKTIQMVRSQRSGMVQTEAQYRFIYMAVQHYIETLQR

In general, IC50 refers to the concentration that inhibits the measured activity by half. For the molecule `O=C1/C(=C/c2ccc(-c3ccc(O)c(-c4nn[nH]n4)c3)o2)Sc2ccccc21` [#04, (Z)-2-((5-(4-Hydroxy-3-(2H-tetrazol-5-yl)phenyl)furan-2-yl)methylene)benzo[b]thiophen-3(2H)-one], the half-inhibitory concentration (IC50) in test [1], in test [2] and in test [3] was 1 to 20 µM each time.

For the molecule `O=C1/C(=C/c2ccc(-c3ccc(O)c(C(=O)O)c3)o2)CCC/C1=C\c1ccc(-c2ccc(O)c(C(=O)O)c2)o1` [#40], the IC50 in test [1], in test [2] and in test [3] was not above 1 µM throughout.

For `O=C1/C(=C/c2ccc(O)c(C(=O)O)c2)CC/C1=C\c1ccc(O)c(C(=O)O)c1` [#47], the IC50 in test [1] and in test [2] was 1 to 20 µM throughout.

As for `O=C(O)c1cccc(-c2cccc(/C=C3\Sc4ccccc4C3=O)c2)c1` [#30], the IC50 in test [1] and in test [2] was 1 to 20 µM in each case.

For the molecule `O=C1/C(=C/c2ccc(-c3cccc(C(=O)O)c3)o2)CC/C1=C\c1ccc(-c2cccc(C(=O)O)c2)o1` [#42], the IC50 in test [1], in test [2] and in test [3] was not above 1 µM throughout.

Regarding `O=C(/C=C/c1ccc(-c2ccc(O)c(C(=O)O)c2)o1)c1cccc(C(=O)/C=C/c2ccc(-c3ccc(O)c(C(=O)O)c3)o2)c1` [#43], the IC50 was 1 to 20 µM in test [1], not above 1 µM in test [2] and not above 1 µM in test [3].

`CC(C)NC(=O)c1cc(-c2ccc(/C=C3\Oc4ccccc4C3=O)o2)ccc1O` [#26]: the IC50 in test [1] and in test [2] was 1 to 20 µM each time.

As to `O=C(NCCO)c1cc(-c2ccc(/C=C3\Sc4ccccc4C3=O)o2)ccc1O` [#22, (Z)-2-Hydroxy-N-(2-hydroxyethyl)-5-(5-((3-oxobenzo[b]thiophen-2(3H)-ylidene)methyl)furan-2-yl)benzamide], the IC50 in test [1] and in test [2] was not below 100 µM each time.

In the case of `O=C(Nc1ccccc1)c1cccc(-c2ccc(/C=C3\Sc4ccccc4C3=O)o2)c1` [#15, (Z)-3-(5-((3-Oxobenzo[b]thiophen-2(3H)-ylidene)methyl)furan-2-yl)-N-phenylbenzamide], the half-maximal inhibitory concentration (IC50) in test [1] and in test [2] was 20 to 100 µM in each case.

Regarding `O=C(/C=C/c1ccc(Br)o1)c1cccc(C(=O)/C=C/c2ccc(Br)o2)c1` [#48], the 50% inhibitory concentration (IC50) in test [1] and in test [2] was 20 to 100 µM throughout.

On to `O=C(O)c1ccc(-c2ccc(/C=C3\Sc4ccccc4C3=O)o2)cc1` [#28], for which the IC50 in test [1] and in test [2] was 1 to 20 µM each time.

As for `O=C1NC(=O)/C(=C/c2ccc(-c3cccc(C(=O)Nc4ccccc4)c3)o2)S1` [#39], the IC50 in test [1] and in test [2] was 20 to 100 µM in each case.

As for `O=C1/C(=C/c2ccc(-c3ccc(O)c(C(=O)O)c3)o2)CC/C1=C\c1ccc(-c2ccc(O)c(C(=O)O)c2)o1` [#44], the IC50 is 1 to 20 µM in test [1] and not above 1 µM in test [2].

As for `CC(C)NC(=O)c1cc(-c2ccc(/C=C3\Sc4ccccc4C3=O)o2)ccc1O` [#13, (Z)-2-Hydroxy-N-isopropyl-5-(5-((3-oxobenzo[b]thiophen-2(3H)-ylidene)methyl)furan-2-yl)benzamide], the IC50 in test [1] was 20 to 100 µM; in test [2] it was 1 to 20 µM.

In the case of `O=C(NCc1ccccc1)c1cccc(-c2ccc(/C=C3\Sc4ccccc4C3=O)o2)c1` [#16, (Z)—N-Benzyl-3-(5-((3-oxobenzo[b]thiophen-2(3H)-ylidene)methyl)furan-2-yl)benzamide], the IC50 is not below 100 µM in test [1] and 20 to 100 µM in test [2].

`O=C1/C(=C/c2ccc(-c3ccccc3)o2)Sc2ccccc21` [#25, (Z)-2-((5-phenylfuran-2-yl)methylene)benzo[b]thiophen-3(2H)-one]: the IC50 in test [1] and in test [2] was not below 100 µM each time.

For the molecule `O=C(Nc1ccccc1)c1cc(-c2ccco2)ccc1O` [#21, 5-(Furan-2-yl)-2-hydroxy-N-phenylbenzamide], the IC50 in test [1] and in test [2] was not below 100 µM throughout.

For the molecule `O=C1/C(=C/c2ccc(-c3ccc(O)c(C(=O)N4CCNCC4)c3)o2)Sc2ccccc21` [#19, (Z)-2-((5-(4-Hydroxy-3-(piperazine-1-carbonyl)phenyl)furan-2-yl)methylene)benzo[b]thiophen-3(2H)-one], the concentration for half-maximal inhibition (IC50) in test [1] is not below 100 µM; in test [2] it was 20 to 100 µM.

On to `O=C(O)c1cc(-c2ccc(/C=C3\Sc4ccccc4C3=O)o2)ccc1F` [#32], for which the IC50 was in the range of 20 to 100 µM in test [1] and 1 to 20 µM in test [2].

For the molecule `O=C(Nc1ccccc1)c1cc(F)cc(-c2ccc(/C=C3\Sc4ccccc4C3=O)o2)c1` [#29], the figures for the IC50 in test [1] and in test [2] were 20 to 100 µM and 1 to 20 µM, respectively.

For `O=C1CCC/C1=C\c1ccc(-c2cccc(C(=O)O)c2)o1` [#36], the IC50 in test [1] and in test [2] was 20 to 100 µM each time.

On to `C/C=C1\CC/C(=C\c2ccc(-c3ccc(O)c(C(=O)O)c3)o2)C1=O` [#27], for which the IC50 in test [1] and in test [2] was 1 to 20 µM in each case.

On to `O=C(O)c1cccc(-c2ccc(/C=C3\Cc4ccccc4C3=O)o2)c1` [#34], for which the IC50 in test [1] lay in the range of 20 to 100 µM; in test [2] it was 1 to 20 µM.

For `COc1cccc(NC(=O)c2cccc(-c3ccc(/C=C4\Sc5ccccc5C4=O)o3)c2)c1` [#33], the IC50 in test [1] was 20 to 100 µM; in test [2], 1 to 20 µM.

On to `O=C1/C(=C/c2ccc(-c3ccc(O)cc3)o2)Sc2ccccc21` [#17, (Z)-2-((5-(4-Hydroxyphenyl)furan-2-yl)methylene)benzo[b]thiophen-3(2H)-one], for which the IC50 in test [1] was not below 100 µM; in test [2], 20 to 100 µM.

Take `O=C(Nc1ccccc1)c1cc(-c2ccc(/C=C3\Sc4ccccc4C3=O)o2)ccc1F` [#24, (Z)-2-Fluoro-5-(5-((3-oxobenzo[b]thiophen-2(3H)-ylidene)methyl)furan-2-yl)-N-phenylbenzamide]: the IC50 in test [1] and in test [2] was not below 100 µM in each case.

Turning to `COc1ccc(-c2ccc(/C=C3\Sc4ccccc4C3=O)o2)cc1C(=O)Nc1ccccc1` [#18, (Z)-2-Methoxy-5-(5-((3-oxobenzo[b]thiophen-2(3H)-ylidene)methyl)furan-2-yl)-N-phenylbenzamide], the IC50 in test [1] and in test [2] was 20 to 100 µM each time.

On to `COc1ccc(-c2ccc(/C=C3\Sc4ccccc4C3=O)o2)cc1C(=O)O` [#35], for which the IC50 in test [1] was in the range of 20 to 100 µM; in test [2], 1 to 20 µM.

For the molecule `CN1CCN(C(=O)c2cc(-c3ccc(/C=C4\Sc5ccccc5C4=O)o3)ccc2O)CC1` [#23, (Z)-2-((5-(4-Hydroxy-3-(4-methylpiperazine-1-carbonyl)phenyl)furan-2-yl)methylene)benzo[b]thiophen-3(2H)-one], the IC50 in test [1] and in test [2] was not below 100 µM throughout.

For the molecule `O=C1CCCC/C1=C\c1ccc(-c2ccc(O)c(C(=O)O)c2)o1` [#14, 2-Hydroxy-5-(5-((2-oxocyclohexylidene)methyl)furan-2-yl)benzoic acid], the IC50 in test [1] and in test [2] was 20 to 100 µM throughout.

With `O=C(/C=C/c1ccc(-c2ccc(O)c(C(=O)O)c2)o1)c1ccccc1` [#37], the IC50 in test [1] and in test [2] was 20 to 100 µM each time.

Take `O=C(O)c1cccc(-c2ccc(/C=C3\Sc4ccccc4C3=O)o2)c1` [#31]: the 50% inhibitory concentration (IC50) in test [1] and in test [2] was 1 to 20 µM throughout.

Take `O=C(Nc1ccc2ccccc2n1)c1cccc(-c2ccc(/C=C3\Sc4ccccc4C3=O)o2)c1` [#38]: the IC50 in test [1] is not below 100 µM; in test [2], 20 to 100 µM.
